# Data reported in patent publication US20150125528A1 (The Water Initiative, LLC, priority 2012, published 2015).
# Assay: calcium hypochlorite stability temperature data
# Format: physicochemical
# Details: below approximately 120° C., 15 minute exposure
# Excerpt: FIG. 2 illustrates calcium hypochlorite stability temperature data.
compound,measurement,value
[Ca+2].[O-]Cl.[O-]Cl [calcium hypochlorite],free chlorine concentration on heating,maintains its free chlorine concentration
